Drawing on US10793580B2, “Substituted pyrazoloazepin-8-ones and their use as phosphodiesterase inhibitors” (LEO Pharma A/S, priority 2016, dated 2020), this text covers IC50 for 29 molecules.

Bounds are passed on as bounds.

The target of the first assay is human PDE4D catalytic domain (Homo sapiens (Human), UniProt Q08499). Description: PDE4 Assay (TR-FRET, FAM-cAMP cleavage). Type of assay: biochemical. As to conditions: Table 17, Examples 297-316; read-out: PDE4 IC50 range. Summed up: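 Readout is Tb-to-FAM time-resolved FRET after nanoparticle capture of AMP, the product of cleaving a cAMP/FAM-cAMP mixture by PDE4D catalytic domain (S380-L740) in the presence of titrated compound. Values are IC50 ranges in nM: concentration halving substrate cleavage relative to controls.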
Chain of human PDE4D catalytic domain (Q08499 380-740): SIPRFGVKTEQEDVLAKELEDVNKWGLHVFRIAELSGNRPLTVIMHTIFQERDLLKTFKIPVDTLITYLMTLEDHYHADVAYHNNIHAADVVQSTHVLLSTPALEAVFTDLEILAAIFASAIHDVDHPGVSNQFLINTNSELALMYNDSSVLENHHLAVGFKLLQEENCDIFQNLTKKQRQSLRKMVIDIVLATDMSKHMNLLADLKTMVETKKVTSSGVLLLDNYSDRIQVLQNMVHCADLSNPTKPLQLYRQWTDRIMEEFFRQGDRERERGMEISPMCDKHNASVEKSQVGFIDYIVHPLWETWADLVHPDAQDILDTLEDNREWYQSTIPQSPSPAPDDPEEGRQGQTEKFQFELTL
For orientation: IC50 means the concentration that inhibits the measured activity by half. Take `CCn1nc(CC(C)(C)COC(=O)C2CCOCC2)c2c1C(=O)NCC1(CCOCC1)C2` [Example 307, [3-(1-ethyl-8-oxo-spiro[6,7-dihydro-4H-pyrazolo[3,4-c]azepine-5,4′-tetrahydro-pyran]-3-yl)-2,2-dimethyl-propyl] tetrahydropyran-4-carboxylate]: the half-inhibitory concentration (IC50) was less than 0.1 µM.

Take `CCn1nc(CC(C)(C)COC(=O)C2CCN(C)CC2)c2c1C(=O)NCC1(CCOCC1)C2` [Example 312, [3-(1-ethyl-8-oxo-spiro[6,7-dihydro-4H-pyrazolo[3,4-c]azepine-5,4′-tetrahydropyran]-3-yl)-2,2-dimethyl-propyl] 1-methylpiperidine-4-carboxylate]: the half-maximal inhibitory concentration (IC50) was 0.1 to 0.5 µM.

The same assay, now with this note: human PDE4D catalytic domain (UniProt Q08499 [S380-L740]); 50% inhibition of substrate cleavage; read-out: PDE4 IC50 range.
On to `CCn1nc(CCCOC(=O)c2cccc(S(=O)(=O)N3CCOCC3)c2)c2c1C(=O)NCC1(CCOCC1)C2` [Example 99, 3-(1-ethyl-8-oxo-spiro[6,7-dihydro-4H-pyrazolo[3,4-c]azepine-5,4′-tetrahydropyran]-3-yl)propyl 3-morpholinosulfonylbenzoate], for which the half-maximal inhibitory concentration (IC50) is less than 0.1 µM.

In the case of `CCn1nc(CCCOC(=O)c2ccccc2S(C)(=O)=O)c2c1C(=O)NCC1(CCOCC1)C2` [Example 64, 3-(1-ethyl-8-oxo-spiro[6,7-dihydro-4H-pyrazolo[3,4-c]azepine-5,4′-tetrahydropyran]-3-yl)propyl 2-methylsulfonylbenzoate], the half-inhibitory concentration (IC50) was less than 0.1 µM.

Consider `CCn1nc(CCCOC(=O)C2CCN(C(=O)OC)CC2)c2c1C(=O)NCC1(CCOCC1)C2` [Example 263, [3-(1-ethyl-8-oxo-spiro[6,7-dihydro-4H-pyrazolo[3,4-c]azepine-5,4′-tetrahydro-pyran]-3-yl)propyl] 1-methoxy-carbonylpiperidine-4-carboxylate], for which the IC50 is less than 0.1 µM.

In the case of `CCn1nc(CCCOC(=O)c2cccc(C(=O)N3CCOCC3)c2)c2c1C(=O)NCC1(CCOCC1)C2` [Example 118, 3-(1-ethyl-8-oxo-spiro[6,7-dihydro-4H-pyrazolo[3,4-c]azepine-5,4′-tetrahydropyran]-3-yl)propyl 3-(morpholine-4-carbonyl)benzoate], the IC50 was less than 0.1 µM.

As for `CCn1nc(CCCOC(=O)c2cnc(C)o2)c2c1C(=O)NCC1(CCOCC1)C2` [Example 241, 3-(1-ethyl-8-oxo-spiro[6,7-dihydro-4H-pyrazolo[3,4-c]azepine-5,4′-tetrahydropyran]-3-yl)propyl 2-methyloxazole-5-carboxylate], the half-inhibitory concentration (IC50) is less than 0.1 µM.

In the case of `CCn1nc(CCCOC(=O)c2cccc(S(=O)(=O)N3CCCC3)c2)c2c1C(=O)NCC1(CCOCC1)C2` [Example 95, 3-(1-ethyl-8-oxo-spiro[6,7-dihydro-4H-pyrazolo[3,4-c]azepine-5,4′-tetrahydro-pyran]-3-yl)propyl 3-pyrro-lidin-1-ylsulfonylbenzoate], the IC50 was less than 0.1 µM.

Turning to `CCn1nc(CCCOC(=O)c2ccc(S(=O)(=O)NC)cc2)c2c1C(=O)NCC1(CCOCC1)C2` [Example 1, 3-(1-Ethyl-8-oxo-spiro[6,7-dihydro-4H-pyrazolo[3,4-c]azepine-5,4′-tetrahydropyran]-3-yl)propyl 4-(methylsulfamoyl)benzoate], the IC50 was less than 0.1 µM.

As to `CCn1nc(CCCOC(=O)c2ccc(Cl)c(F)c2)c2c1C(=O)NCC1(CCOCC1)C2` [Example 48, 3-(1-ethyl-8-oxo-spiro[6,7-dihydro-4H-pyrazolo[3,4-c]azepine-5,4′-tetrahydropyran]-3-yl)propyl 4-chloro-3-fluoro-benzoate], the concentration for half-maximal inhibition (IC50) was less than 0.1 µM.

With `CCn1nc(CCCOC(=O)c2csc(C)n2)c2c1C(=O)NCC1(CCOCC1)C2` [Example 254, 3-(1-ethyl-8-oxo-spiro[6,7-dihydro-4H-pyrazolo[3,4-c]azepine-5,4′-tetrahydropyran]-3-yl)propyl 2-methylthiazole-4-carboxylate], the half-maximal inhibitory concentration (IC50) was less than 0.1 µM.

Take `CCn1nc(CCCCOC(=O)c2ccc(C(=O)N(C)C)cc2)c2c1C(=O)NCC1(CCOCC1)C2` [Example 129, 4-(1-ethyl-8-oxo-spiro[6,7-dihydro-4H-pyrazolo[3,4-c]azepine-5,4′-tetrahydropyran]-3-yl)butyl 4-(dimethyl-carbamoyl)benzoate]: the IC50 is less than 0.1 µM.

As to `CCn1nc(C[C@@H](C)COC(=O)c2ccc(F)cc2)c2c1C(=O)NCC1(CCOCC1)C2` [Example 145, [(2R)-3-(1-ethyl-8-oxo-spiro[6,7-dihydro-4H-pyrazolo[3,4-c]azepine-5,4′-tetrahydropyran]-3-yl)-2-methyl-propyl] 4-fluorobenzoate], the IC50 is less than 0.1 µM.

Take `CCn1nc(CCCOC(=O)c2cscn2)c2c1C(=O)NCC1(CCOCC1)C2` [Example 244, 3-(1-ethyl-8-oxo-spiro[6,7-dihydro-4H-pyrazolo[3,4-c]azepine-5,4′-tetrahydropyran]-3-yl)propyl thiazole-4-carboxylate]: the IC50 was less than 0.1 µM.

In the case of `CCn1nc(CC(C)(C)COC(=O)c2ccc(S(=O)(=O)C3CCCC3)cc2)c2c1C(=O)NCC1(CCOCC1)C2` [Example 209, [3-(1-ethyl-8-oxo-spiro[6,7-dihydro-4H-pyrazolo[3,4-c]azepine-5,4′-tetrahydropyran]-3-yl)-2,2-dimethyl-propyl] 4-cyclopentylsulfonylbenzoate], the IC50 is less than 0.1 µM.

Turning to `CCn1nc(CCCOC(=O)c2cccc(F)c2Cl)c2c1C(=O)NCC1(CCOCC1)C2` [Example 49, 3-(1-ethyl-8-oxo-spiro[6,7-dihydro-4H-pyrazolo[3,4-c]azepine-5,4′-tetrahydropyran]-3-yl)propyl 2-chloro-3-fluoro-benzoate], the IC50 was less than 0.1 µM.

Take `CCn1nc(C[C@@H](C)COC(=O)c2cccc(OC)c2)c2c1C(=O)NCC1(CCOCC1)C2` [Example 150, [(2R)-3-(1-ethyl-8-oxo-spiro[6,7-dihydro-4H-pyrazolo[3,4-c]azepine-5,4′-tetrahydropyran]-3-yl)-2-methyl-propyl] 3-methoxybenzoate]: the IC50 is less than 0.1 µM.

For the molecule `CCn1nc(CC(C)(C)COC(=O)c2cccc(C(N)=O)c2)c2c1C(=O)NCC1(CCOCC1)C2` [Example 227, [3-(1-ethyl-8-oxo-spiro[6,7-dihydro-4H-pyrazolo[3,4-c]azepine-5,4′-tetrahydropyran]-3-yl)-2,2-dimethyl-propyl] 3-carbamoylbenzoate], the IC50 is less than 0.1 µM.

Consider `CCn1nc(CCCOC(=O)c2cc(F)ccc2C(F)(F)F)c2c1C(=O)NCC1(CCOCC1)C2` [Example 74, 3-(1-ethyl-8-oxo-spiro[6,7-dihydro-4H-pyrazolo[3,4-c]azepine-5,4′-tetrahydro-pyran]-3-yl)propyl 5-fluoro-2-(trifluoromethyl)benzoate], for which the IC50 was less than 0.1 µM.

Regarding `CCn1nc(CCCOC(=O)c2ccc(C)cc2F)c2c1C(=O)NCC1(CCOCC1)C2` [Example 18, 3-(1-ethyl-8-oxo-spiro[6,7-dihydro-4H-pyrazolo[3,4-c]azepine-5,4′-tetrahydropyran]-3-yl)propyl 2-fluoro-4-methyl-benzoate], the IC50 is less than 0.1 µM.

For `CCn1nc(C[C@@H](C)COC(=O)c2ccc(S(C)(=O)=O)cc2)c2c1C(=O)NCC1(CCOCC1)C2` [Example 155, [(2R)-3-(1-ethyl-8-oxo-spiro[6,7-dihydro-4H-pyrazolo[3,4-c]azepine-5,4′-tetrahydropyran]-3-yl)-2-methyl-propyl] 4-methylsulfonylbenzoate], the half-maximal inhibitory concentration (IC50) is less than 0.1 µM.

On to `CCn1nc(CCCOC(=O)c2cccc(F)c2F)c2c1C(=O)NCC1(CCOCC1)C2` [Example 24, 3-(1-ethyl-8-oxo-spiro[6,7-dihydro-4H-pyrazolo[3,4-c]azepine-5,4′-tetrahydropyran]-3-yl)propyl 2,3-difluorobenzoate], for which the IC50 is less than 0.1 µM.

As to `CCn1nc(CCCOC(=O)c2ccc(F)cc2C)c2c1C(=O)NCC1(CCOCC1)C2` [Example 19, 3-(1-ethyl-8-oxo-spiro[6,7-dihydro-4H-pyrazolo[3,4-c]azepine-5,4′-tetrahydropyran]-3-yl)propyl 4-fluoro-2-methyl-benzoate], the half-inhibitory concentration (IC50) is less than 0.1 µM.

With `CCn1nc(CCCCOC(=O)c2ccc(OC)cc2)c2c1C(=O)NCC1(CCOCC1)C2` [Example 125, 4-(1-ethyl-8-oxo-spiro[6,7-dihydro-4H-pyrazolo[3,4-c]azepine-5,4′-tetrahydropyran]-3-yl)butyl 4-methoxybenzoate], the IC50 was less than 0.1 µM.

In the case of `CCn1nc(CC(C)(C)COC(=O)c2cccc(S(=O)(=O)N3CCCC3)c2)c2c1C(=O)NCC1(CCOCC1)C2` [Example 210, [3-(1-ethyl-8-oxo-spiro[6,7-dihydro-4H-pyrazolo[3,4-c]azepine-5,4′-tetrahydropyran]-3-yl)-2,2-dimethyl-propyl] 3-pyrrolidin-1-ylsulfonylbenzoate], the IC50 was less than 0.1 µM.

Take `CCn1nc(CC(C)(C)COC(=O)c2ccc(S(=O)(=O)C(C)C)cc2)c2c1C(=O)NCC1(CCOCC1)C2` [Example 207, [3-(1-ethyl-8-oxo-spiro[6,7-dihydro-4H-pyrazolo[3,4-c]azepine-5,4′-tetrahydropyran]-3-yl)-2,2-dimethyl-propyl] 4-isopropylsulfonylbenzoate]: the half-maximal inhibitory concentration (IC50) is less than 0.1 µM.

Turning to `CCn1nc(CCCOC(=O)c2cncs2)c2c1C(=O)NCC1(CCOCC1)C2` [Example 245, 3-(1-ethyl-8-oxo-spiro[6,7-dihydro-4H-pyrazolo[3,4-c]azepine-5,4′-tetrahydropyran]-3-yl)propyl thiazole-5-carboxylate], the IC50 is less than 0.1 µM.

Take `CCn1nc(CCCOC(=O)c2ccc(Cl)cc2)c2c1C(=O)NCC1(CCOCC1)C2` [Example 22, 3-(1-ethyl-8-oxo-spiro[6,7-dihydro-4H-pyrazolo[3,4-c]azepine-5,4′-tetrahydropyran]-3-yl)propyl 4-chlorobenzoate]: the half-inhibitory concentration (IC50) was less than 0.1 µM.

In the case of `CCn1cc(C(=O)OCCCc2nn(CC)c3c2CC2(CCOCC2)CNC3=O)cn1` [Example 250, 3-(1-ethyl-8-oxo-spiro[6,7-dihydro-4H-pyrazolo[3,4-c]azepine-5,4′-tetrahydropyran]-3-yl)propyl 1-ethylpyrazole-4-carboxylate], the IC50 was less than 0.1 µM.
